Source: patent US20260250272A1, “N-SUBSTITUTED QUINOLINONE COMPOUND, PREPARATION METHOD THEREFOR AND USE THEREOF” (VIGONVITA LIFE SCIENCES CO., LTD., priority 2022, published 2026)

Tests used:
[1] = biological target: T1, human recombinant 5-HT2A receptor (Homo sapiens, UniProt P28223); test: Antagonistic activity against the 5-HT2A receptor (IP-One-Gq, CHO cells); format: cell-based; details: serotonin stimulation
T1 construct: expressed in transfected cells; host or cells: CHO (5-HT2A-CHO)
Description: The antagonistic effect of the compounds on the 5-HT2A receptor in the CHO cells expressing the human recombinant 5-HT2A receptor was assayed by using the IP-One-Gq kit (Cisbio). […] Risperidone was used as a positive control.

[2] = biological target: T2, human recombinant 5-HT1A receptor (Homo sapiens, UniProt P08908); test: Agonistic activity against the 5-HT1A receptor (LANCE cAMP, HEK293 cells); format: cell-based; details: inhibition of cAMP production
T2 construct: expressed in transfected cells; host or cells: HEK293
T2 sequence (P08908 1-422): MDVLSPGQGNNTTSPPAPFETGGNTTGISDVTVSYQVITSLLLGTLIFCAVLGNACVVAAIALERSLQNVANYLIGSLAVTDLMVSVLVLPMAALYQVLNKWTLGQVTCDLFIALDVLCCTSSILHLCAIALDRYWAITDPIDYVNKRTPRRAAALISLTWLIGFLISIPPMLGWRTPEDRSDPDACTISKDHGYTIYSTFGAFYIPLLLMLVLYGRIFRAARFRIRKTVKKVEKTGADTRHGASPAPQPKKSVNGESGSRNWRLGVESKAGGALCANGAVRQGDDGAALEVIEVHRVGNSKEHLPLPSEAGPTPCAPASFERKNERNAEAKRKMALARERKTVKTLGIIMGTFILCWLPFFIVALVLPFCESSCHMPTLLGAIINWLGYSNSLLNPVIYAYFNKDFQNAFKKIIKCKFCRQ

human SERT = biological target: T3, human SERT (Homo sapiens, UniProt P31645); test: cell-based; details: HEK-hSERT cells; read-out: Inhibitory activity against 5-HT transporter (IC50)
T3 construct: expressed in transfected cells; host or cells: HEK-293 (HEK-hSERT)
T3 sequence (P31645 whole entry): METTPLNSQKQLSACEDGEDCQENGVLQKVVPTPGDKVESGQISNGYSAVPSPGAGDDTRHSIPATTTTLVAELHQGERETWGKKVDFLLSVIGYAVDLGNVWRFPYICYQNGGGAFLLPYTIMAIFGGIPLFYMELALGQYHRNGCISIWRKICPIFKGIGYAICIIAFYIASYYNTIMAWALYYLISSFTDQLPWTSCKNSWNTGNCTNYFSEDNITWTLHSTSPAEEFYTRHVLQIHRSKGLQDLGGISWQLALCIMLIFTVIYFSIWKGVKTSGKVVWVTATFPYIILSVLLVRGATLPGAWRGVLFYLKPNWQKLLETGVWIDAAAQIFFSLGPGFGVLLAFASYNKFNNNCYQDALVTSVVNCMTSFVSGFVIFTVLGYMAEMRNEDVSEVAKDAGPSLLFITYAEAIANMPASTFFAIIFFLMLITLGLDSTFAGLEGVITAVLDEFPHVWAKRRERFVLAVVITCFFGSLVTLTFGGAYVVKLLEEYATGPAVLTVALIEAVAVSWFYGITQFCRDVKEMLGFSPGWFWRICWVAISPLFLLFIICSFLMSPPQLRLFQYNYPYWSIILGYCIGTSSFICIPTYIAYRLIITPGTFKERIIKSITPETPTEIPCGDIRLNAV
Description: The inhibitory effect of the compounds on the 5-HT transporter in the HEK-293 cells expressing human SERT was evaluated by using the neurotransmitter transporter uptake assay kit (Molecular Devices).

[3] = biological target: human recombinant D2L receptor (Homo sapiens, UniProt P14416); test: Antagonistic activity against the D2L receptor (LANCE Ultra cAMP, CHO cells)
Chain of human recombinant D2L receptor (P14416 whole entry): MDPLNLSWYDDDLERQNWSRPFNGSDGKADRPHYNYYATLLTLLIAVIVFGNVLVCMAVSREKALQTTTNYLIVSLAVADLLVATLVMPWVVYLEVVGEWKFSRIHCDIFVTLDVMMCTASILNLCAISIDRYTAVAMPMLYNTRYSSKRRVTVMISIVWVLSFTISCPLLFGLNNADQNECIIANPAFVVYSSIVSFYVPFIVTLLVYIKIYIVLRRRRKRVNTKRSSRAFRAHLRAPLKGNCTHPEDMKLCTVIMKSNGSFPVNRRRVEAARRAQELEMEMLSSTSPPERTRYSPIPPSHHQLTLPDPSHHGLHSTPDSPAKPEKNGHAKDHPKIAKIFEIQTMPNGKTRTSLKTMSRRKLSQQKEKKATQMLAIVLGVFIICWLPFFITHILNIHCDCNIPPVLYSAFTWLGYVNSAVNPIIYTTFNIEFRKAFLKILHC
Description: The antagonistic effect of the compounds on the D2L receptor in the CHO cells expressing the human recombinant D2L receptor was assayed by using the LANCE® Ultra cAMP kit (PerkinElmer, USA). […] Amisulpride was used as a positive control.

hERG potassium channel = biological target: T4, hERG potassium channel (Homo sapiens, UniProt Q12809); test: hERG potassium channel block, automatic patch clamp (QPatch, CHO cells); format: cell-based; details: CHO cells stably expressing hERG, highest concentration 20 μM; read-out: hERG inhibition (IC50)
T4 construct: expressed in transfected cells
T4 sequence (Q12809 whole entry): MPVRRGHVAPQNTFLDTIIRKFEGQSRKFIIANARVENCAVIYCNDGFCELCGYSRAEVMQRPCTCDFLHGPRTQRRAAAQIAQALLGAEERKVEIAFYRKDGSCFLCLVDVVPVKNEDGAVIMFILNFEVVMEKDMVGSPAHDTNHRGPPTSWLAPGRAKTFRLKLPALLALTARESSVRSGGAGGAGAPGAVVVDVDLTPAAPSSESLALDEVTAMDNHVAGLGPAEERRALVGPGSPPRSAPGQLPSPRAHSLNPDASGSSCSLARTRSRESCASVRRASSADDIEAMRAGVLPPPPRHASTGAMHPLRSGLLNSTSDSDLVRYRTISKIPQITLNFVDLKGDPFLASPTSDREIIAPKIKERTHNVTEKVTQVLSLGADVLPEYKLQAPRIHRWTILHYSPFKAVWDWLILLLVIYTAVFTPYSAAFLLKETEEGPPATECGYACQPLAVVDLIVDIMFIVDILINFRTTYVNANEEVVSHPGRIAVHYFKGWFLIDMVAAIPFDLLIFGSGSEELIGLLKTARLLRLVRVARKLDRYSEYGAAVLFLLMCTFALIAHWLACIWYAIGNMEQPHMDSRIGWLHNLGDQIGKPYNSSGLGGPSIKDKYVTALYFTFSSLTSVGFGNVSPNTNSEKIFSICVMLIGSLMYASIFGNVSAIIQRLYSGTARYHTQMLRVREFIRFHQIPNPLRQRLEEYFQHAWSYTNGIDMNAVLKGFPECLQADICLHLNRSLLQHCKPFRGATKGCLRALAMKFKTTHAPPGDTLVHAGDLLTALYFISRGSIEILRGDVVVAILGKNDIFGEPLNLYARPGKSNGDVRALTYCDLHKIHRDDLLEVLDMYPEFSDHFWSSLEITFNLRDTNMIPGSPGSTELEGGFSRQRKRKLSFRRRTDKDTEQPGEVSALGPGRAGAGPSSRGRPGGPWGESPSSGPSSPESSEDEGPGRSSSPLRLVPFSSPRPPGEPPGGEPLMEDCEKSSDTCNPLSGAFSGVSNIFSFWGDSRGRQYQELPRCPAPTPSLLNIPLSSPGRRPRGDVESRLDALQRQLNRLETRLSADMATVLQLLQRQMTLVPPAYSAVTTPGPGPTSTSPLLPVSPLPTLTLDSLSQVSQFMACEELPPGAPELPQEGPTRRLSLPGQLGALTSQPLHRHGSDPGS
Description: The hERG potassium channel block experiment was performed using the full-automatic patch-clamp technique (QPatch^HTX, Sophion, Stockholm, Sweden). The cell line is CHO cells stably expressing the hERG potassium channel. The compounds were tested at the highest test concentration of 20 μM in 3-fold dilution (n=3).

human D3 receptor = human D3 receptor (Homo sapiens, UniProt P35462); test: cell-based
Chain of human D3 receptor (P35462 whole entry): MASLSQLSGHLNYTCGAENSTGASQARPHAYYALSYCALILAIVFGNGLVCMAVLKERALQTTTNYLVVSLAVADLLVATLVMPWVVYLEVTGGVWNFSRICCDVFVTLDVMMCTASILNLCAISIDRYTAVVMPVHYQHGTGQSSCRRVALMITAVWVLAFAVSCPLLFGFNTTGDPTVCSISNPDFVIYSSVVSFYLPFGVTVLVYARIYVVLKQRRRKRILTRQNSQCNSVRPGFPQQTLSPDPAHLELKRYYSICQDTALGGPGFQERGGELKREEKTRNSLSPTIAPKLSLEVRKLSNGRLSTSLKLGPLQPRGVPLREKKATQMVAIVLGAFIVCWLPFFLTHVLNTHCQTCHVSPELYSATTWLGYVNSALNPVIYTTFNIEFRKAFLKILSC

[4] = Human liver microsome assay; format: in vitro ADME
Description: Preparation of magnesium-potassium buffer solution: a 100 mM potassium buffer and 5 mM MgCl2 were preheated together to obtain a magnesium-potassium buffer at a pH of 7.41. Preparation of 0.5 mM working solution: a 10 mM compound stock solution was added to 95 μL of acetonitrile. Preparation of 1.5 μM working solution containing microsomes (0.75 mg/mL): 1.5 μL of the 0.5 mM working solution and 18.75 μL of 20 mg/mL human liver microsome solution were added to 479.75 μL of the magnesium-potassium buffer. Preparation of NADPH stock solution (6 mM, 5 mg/mL): NADPH was dissolved in the magnesium-potassium buffer. 30 μL of 1.5 μM working solution containing 0.75 mg/mL human liver microsomes were added to each of the wells of a 96-well plate, and the plate was pre-incubated at 37° C. for 5 min. For a sample at 0 min, 150 μL of acetonitrile solution containing an internal standard was added, and then 15 μL of NADPH stock solution (6 mM) was added to initiate the reaction. For samples at other time points, 15 μL of NADPH stock solution (6 mM) was directly added to initiate the reaction. Final content of components: compound (1 μM), human liver microsomes (0.5 mg/mL), and NADPH (2 mM). 150 μL of cold stop buffer containing an internal standard was added at time points of 5 min, 15 min, 30 min, and 45 min to stop the sample reaction, the plate was centrifuged at 600 rpm for 10 min and then at 6000 rpm for 15 min, and the supernatant was taken for LC-MS/MS analysis.
A standard curve of the ln residual rate of the drug in the incubation system with respect to the incubation time was plotted by using Excel software, linear regression was performed to obtain a slope k, and the half-life T1/2 (min) and the intrinsic clearance CLint (mL/min/kg) value were calculated according to the following formula: […]

[5] = Oil solubility test in benzyl benzoate (HPLC); format: physicochemical; details: organic solvent or mixture, thermodynamic from solid, 25° C., shaken 2 h
Description: The solubility test was performed by quantitative analysis using an external standard method of high-performance liquid chromatography.
Reference sample solution: 10 mg of reference sample was weighed, placed in a 20 mL volumetric flask, diluted to the scale with 80% acetonitrile, and shaken uniformly.
Test sample solution: an appropriate amount of sample was dissolved in benzyl benzoate to obtain a saturated solution. The mixture was placed in a shaker and shaken at 25° C. and 800 rpm for 2 h. The sample solution was filtered, and 100 μL of filtrate was added to a 10 mL volumetric flask, diluted to the scale with 80% acetonitrile, and shaken uniformly.

[6] = Pharmacokinetic experiment in rats, intramuscular injection; format: in vivo; details: SD male rats, 43.3 mmol/kg, benzyl benzoate vehicle, up to day 36
Description: The pharmacokinetic experiment in rats was performed on compounds 2, 3, 5, 6, 7, and 8 (non-fasting SD male rats, administered intramuscularly, at a dose of 43.3 mmol/kg, n=3). The vehicle was benzyl benzoate, the injection site was the thigh muscle of the hind limb, and about 0.3 mL of blood samples were collected from the jugular vein of rats at blood collection time points of day 0.25, day 2, day 4, day 6, day 8, day 15, day 22, day 29, and day 36. The collected blood was stored under ice-cold conditions, plasma was rapidly isolated by centrifugation and the precipitant was added, and the concentration of compound 1 (active metabolite) was quantitatively determined by LCMS.

T1 sequence (P28223 whole entry): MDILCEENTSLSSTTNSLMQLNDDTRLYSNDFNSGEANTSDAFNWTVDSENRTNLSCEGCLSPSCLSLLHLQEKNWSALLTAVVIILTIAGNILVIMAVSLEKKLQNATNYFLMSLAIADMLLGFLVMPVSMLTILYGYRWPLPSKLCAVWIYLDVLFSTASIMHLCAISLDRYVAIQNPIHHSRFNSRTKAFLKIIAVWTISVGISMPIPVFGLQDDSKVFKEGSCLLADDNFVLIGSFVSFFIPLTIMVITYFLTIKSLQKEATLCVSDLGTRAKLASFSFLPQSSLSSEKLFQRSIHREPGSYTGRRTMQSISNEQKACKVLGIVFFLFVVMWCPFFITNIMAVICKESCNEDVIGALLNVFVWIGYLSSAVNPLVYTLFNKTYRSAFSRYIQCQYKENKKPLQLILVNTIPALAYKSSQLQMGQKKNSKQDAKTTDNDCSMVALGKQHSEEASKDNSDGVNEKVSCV

SMILES	IC50 [1] [µM]	EC50 [2] [µM]	IC50 (human SERT) [µM]	IC50 [3] [µM]	IC50 (hERG potassium channel) [µM]	EC50 (human D3 receptor) [µM]	Metabolic stability in human liver microsomes (in words) ([4]; human liver microsomes)	half-life at 1 μM ([4]; pH 7.41, human liver microsomes 0.5 mg/mL, compound 1 μM, NADPH 2 mM, read-out: Half-life (t1/2, min)) [min]	solubility at 2 h [5] [mg/mL]	Fluctuation in the plasma concentration of the active metabolite (compound 1) [6]
O=C1CCc2ccc(CCN3CCN(c4cc(F)cc5sccc45)CC3)cc2N1CO [Compound 1]	0.032	0.0007	0.013	0.0035	1.81	0.0071				
CCCCCCCCCCCCCCCC(=O)OCN1C(=O)CCc2ccc(CCN3CCN(c4cc(F)cc5sccc45)CC3)cc21 [Compound 8, (7-(2-(4-(6-fluorobenzo[b]thiophen-4-yl)piperazin-1-yl)ethyl)-2-oxo-3,4-dihydroquinolin-1(2H)-yl)methyl palmitate]							good metabolic stability	> 120	> 200	minimal fluctuation
